Patent US7045343B2, “Sterilization indicator test packs” (3M Innovative Properties Company, priority 1998, dated 2006)

Assays:
[1] = tested on: Bacillus stearothermophilus spores; assay: Spore outgrowth (color change) of indicators after prevacuum steam sterilization; assay type: cell-based; settings: 4-pulse prevacuum steam 121° C.
Outline: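 Bacillus stearothermophilus ATCC 7953 spores were cleaned, mixed into a heated sterilant-resistant coating chemical solution and pipetted onto paper strips at about 1×10^6 spores per strip. The strips were dried and placed in indicators, then exposed to a 4-pulse prevacuum steam cycle at 121° C. After exposure the media ampoule was crushed, and growth was judged visually as a purple-to-yellow color change after 168 hours at 60° C.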

[2] = tested on: enzyme associated with Bacillus stearothermophilus spores; assay: Rapid enzyme fluorescence readout of dual rapid readout indicators after prevacuum steam sterilization; assay type: biochemical; settings: 4-pulse prevacuum steam 121° C.
Outline: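 Bacillus stearothermophilus ATCC 7953 spores were coated with a sterilant-resistant chemical solution and pipetted onto paper strips at about 1×10^6 spores per strip. Each strip sat in a dual rapid readout indicator beside a crushable inner container of nutrient medium holding 4-methylumbelliferyl-alpha-D-glucoside at pH 7.6. Indicators went through a 4-pulse prevacuum steam cycle at 121° C, were activated, incubated at 60° C, and read for fluorescence on a 3M ATTEST Model 190 Rapid Autoreader.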

[3] = Example 4, 50 mg/ml coating, 7–18 min
[4] = Example 4, 100 mg/ml coating, 7–18 min
[5] = Example 1, 10 mg/ml coating, 7–13 min
[6] = Example 1, 20 mg/ml coating, 7–13 min
[7] = Example 1, 40 mg/ml coating, 7–13 min
[8] = Example 1, 80 mg/ml coating, 7–13 min
[9] = Example 1, 100 mg/ml coating, 7–13 min
[10] = Example 3, 100 mg/ml coating, 7–15 min

For Decaglyceryl Decaoleate, the “NO. GROWTH POSITIVE 168 HR” value [1, 3] was 31, the “NO. GROWTH POSITIVE 168 HR” value [1, 4] was 30 and the “FLUORESCENCE - PERCENT POSITIVE 1 HR” value [2, 3] was 0%. The “FLUORESCENCE - PERCENT POSITIVE 2 HR” value [2, 3] was 19.4%, the “FLUORESCENCE - PERCENT POSITIVE 3 HR” value [2, 3] was 29.0% and the “FLUORESCENCE - PERCENT POSITIVE 4 HR” value [2, 3] was 41.9%. For the same substance, the “FLUORESCENCE - PERCENT POSITIVE 1 HR” value [2, 4] was 16.7%, the “FLUORESCENCE - PERCENT POSITIVE 2 HR” value [2, 4] was 20% and the “FLUORESCENCE - PERCENT POSITIVE 3 HR” value [2, 4] was 30%. For the same substance, the “FLUORESCENCE - PERCENT POSITIVE 4 HR” value [2, 4] was 50%.

For Decaglyceryl Monostearate, the “NO. GROWTH POSITIVE 168 HR” value [1, 5] was 39, the “NO. GROWTH POSITIVE 168 HR” value [1, 6] was 34 and the “NO. GROWTH POSITIVE 168 HR” value [1, 7] was 59. For the same substance, the “NO. GROWTH POSITIVE 168 HR” value [1, 8] was 55, the “NO. GROWTH POSITIVE 168 HR” value [1, 9] was 34 and the “GROWTH POSITIVE 168 HR” value [1, 10] was 20. The “NO. GROWTH POSITIVE 168 HR” value [1, 3] was 29, the “accuracy of sterilization indicators compared to indicators made with untreated spores” value [2] was “improved” and the “accuracy of sterilization indicators compared to indicators made with untreated spores” value ([2]; listed as decaglycerol monostearate) was “improved accuracy”. The “FLUORESCENCE - PERCENT POSITIVE 1 HR” value [2, 5] was 0%, the “FLUORESCENCE - PERCENT POSITIVE 2 HR” value [2, 5] was 41.0% and the “FLUORESCENCE - PERCENT POSITIVE 3 HR” value [2, 5] was 74.4%. For the same substance, the “FLUORESCENCE - PERCENT POSITIVE 4 HR” value [2, 5] was 82.1%, the “FLUORESCENCE - PERCENT POSITIVE 5 HR” value [2, 5] was 87.2% and the “FLUORESCENCE - PERCENT POSITIVE 6 HR” value [2, 5] was 89.7%. For the same substance, the “FLUORESCENCE - PERCENT POSITIVE 1 HR” value [2, 6] was 0%, the “FLUORESCENCE - PERCENT POSITIVE 2 HR” value [2, 6] was 17.6% and the “FLUORESCENCE - PERCENT POSITIVE 3 HR” value [2, 6] was 73.5%. The “FLUORESCENCE - PERCENT POSITIVE 4 HR” value [2, 6] was 91.2%, the “FLUORESCENCE - PERCENT POSITIVE 5 HR” value [2, 6] was 100% and the “FLUORESCENCE - PERCENT POSITIVE 6 HR” value [2, 6] was 100%. The “FLUORESCENCE - PERCENT POSITIVE 1 HR” value [2, 7] was 0%, the “FLUORESCENCE - PERCENT POSITIVE 2 HR” value [2, 7] was 69.5% and the “FLUORESCENCE - PERCENT POSITIVE 3 HR” value [2, 7] was 91.5%. The “FLUORESCENCE - PERCENT POSITIVE 4 HR” value [2, 7] was 100%, the “FLUORESCENCE - PERCENT POSITIVE 5 HR” value [2, 7] was 100% and the “FLUORESCENCE - PERCENT POSITIVE 6 HR” value [2, 7] was 100%. The “FLUORESCENCE - PERCENT POSITIVE 1 HR” value [2, 8] was 0%, the “FLUORESCENCE - PERCENT POSITIVE 2 HR” value [2, 8] was 85.5% and the “FLUORESCENCE - PERCENT POSITIVE 3 HR” value [2, 8] was 96.4%. For the same substance, the “FLUORESCENCE - PERCENT POSITIVE 4 HR” value [2, 8] was 100%, the “FLUORESCENCE - PERCENT POSITIVE 5 HR” value [2, 8] was 100% and the “FLUORESCENCE - PERCENT POSITIVE 6 HR” value [2, 8] was 100%. The “FLUORESCENCE - PERCENT POSITIVE 1 HR” value [2, 9] was 8.8%, the “FLUORESCENCE - PERCENT POSITIVE 2 HR” value [2, 9] was 85.3% and the “FLUORESCENCE - PERCENT POSITIVE 3 HR” value [2, 9] was 100%. The “FLUORESCENCE - PERCENT POSITIVE 4 HR” value [2, 9] was 100%, the “FLUORESCENCE - PERCENT POSITIVE 5 HR” value [2, 9] was 100% and the “FLUORESCENCE - PERCENT POSITIVE 6 HR” value [2, 9] was 100%. The “FLUORESCENCE - PERCENT POSITIVE 1 HR” value [2, 10] was 0%, the “FLUORESCENCE - PERCENT POSITIVE 2 HR” value [2, 10] was 100.0% and the “FLUORESCENCE - PERCENT POSITIVE 3 HR” value [2, 10] was 100.0%. The “FLUORESCENCE - PERCENT POSITIVE 4 HR” value [2, 10] was 100.0%, the “FLUORESCENCE - PERCENT POSITIVE 1 HR” value [2, 3] was 13.8% and the “FLUORESCENCE - PERCENT POSITIVE 2 HR” value [2, 3] was 86.2%. For the same substance, the “FLUORESCENCE - PERCENT POSITIVE 3 HR” value [2, 3] was 100.0% and the “FLUORESCENCE - PERCENT POSITIVE 4 HR” value [2, 3] was 100.0%.
